The values that follow come from US10239836B2, “Benzenecarbothioccyclopenta[c] pyrrole-1,3-dione compounds and process for synthesis thereof” (Council of Scientific & Industrial Research, priority 2014, dated 2019).

For orientation: IC50 means the point on the concentration scale where inhibition reaches its midpoint. As a reminder, the melting point is the temperature, or range, at which the solid turns liquid.

Data set [1] can be described thus: Cytotoxicity assay (MTT viability). It is filed as cell-based, Mouse. Conditions: mouse; RAW 264.7 cells, MTT, 24 h treatment, serum free. As to the method:
(§1) Mouse macrophage cell line RAW 264.7 was maintained in laboratory at 37° C. in
(§2) RPMI-1640 media supplemented with 10% heat-inactivated fetal bovine serum (FBS) and penicillin/streptomycin.
Viability of cultured cells was determined by (4,5-dimethylthiazol-2-yl)-2,5-diphenyltetrazolium bromide (MTT; Sigma) as described earlier (1). RAW 264.7 was seeded in triplicate at a density of 2×10^4 cells per well on a 96-well plate. […] MTT solution (0.5 mg/ml) was then added to each well and incubate for 4 h at 37° C. At the end of the incubation period, the medium was removed and the resulting purple formazan was solubilized with acidic isopropanol (0.1 N HCl in absolute isopropanol), and the absorbance was read at 570 nm using Biorad Microplate reader (Biorad, USA).

The test system of data set [2] is LPS induced NO generation in RAW 264.7 cells. Put plainly: Inhibition of LPS induced NO generation (nitrite, Griess reagent). The class given is cell-based, Mouse. Conditions: for IC50: Mus musculus, read-out: NO inhibition (B) IC50; for Selectivity index (A/B): cytotoxicity IC50 / NO inhibition IC50, RAW 264.7 cells. As to the method: as §1, §2
Nitrite, a stable oxidized product of NO, was measured in culture supernatant using Griess reagent (Sigma Aldrich) according to a previously reported method (2). After overnight seeding in 96-well plate (2×10^4 cells/well), RAW 264.7 cell was treated with lipopolysaccharide (LPS; Sigma) at a concentration of 1 μg/ml along with different doses of compounds (as determined from cytotoxicity assay) in serum-free culture for 24 h. Following treatment, media was collected and centrifuged at 2,000 rpm for 5 min to remove cellular debris. 50 μl of this media was then reacted with equal volume of Griess reagent for 15 min at room temperature in dark and absorbance was taken at 540 nm using Microplate reader (Biorad, USA). Nitrite concentrations were determined using standard solutions of sodium nitrite prepared in cell culture medium.
(In general: Nitrite, measured by Griess reagent, commonly stands in for NO production.)

[3] abbreviates: RAW264.7, RAW 264.7 cells, LPS 1 μg/ml, 24 h, serum-free.

Molecules are shown by their SMILES. Read-outs that look alike come from different tables or passages of the source.

Regarding `O=C(S[C@@]12CC[C@@H](O)[C@@H]1C(=O)NC2=O)c1ccc(O)cc1` (racemic) [(±)-2, S-((3aS*,6R*,6aR*)-6-hydroxy-1,3-dioxohexahydrocyclopenta[c]pyrrol-3a(1H)-yl) 4-hydroxybenzothioate], half-maximal inhibition in data set [1] (IC50 at 24 h) required 434 µM. Besides, the 50% inhibitory concentration (IC50) in data set [2] (setting [3]) stood at 225 µM. Also, the “Selectivity index (A/B)” value in data set [2] was determined as 1.925.
As for `O=C(Cc1ccccc1)S[C@]12CC[C@@H](O)[C@H]1C(=O)NC2=O` (relative stereo) [Compound 9, S-((3aR*,6R*,6aS*)-6-Hydroxy-1,3-dioxohexahydrocyclopenta[c]pyrrol-3a(1H)-yl) 2-phenylethanethioate], in data set [1], the midpoint of inhibition, the IC50 at 24 h, lay at 834 µM. Moreover, the IC50 in data set [2] (setting [3]) worked out at 132 µM. Moreover, the “Selectivity index (A/B)” value in data set [2] is 6.322.
For `O=C1NC(=O)C2=C1CCC2SC(=O)c1ccccc1` (stereo not shown), the melting point lay within 149 to 151 °C.
For the compound `O=C(S[C@]12CC[C@H](O)[C@H]1C(=O)NC2=O)c1ccc(O)cc1` [(−)-2, S-((3aR,6S,6aS)-6-hydroxy-1,3-dioxohexahydrocyclopenta[c]pyrrol-3a(1H)-yl) 4-hydroxybenzothioate], in data set [1], the IC50 at 24 h came out at 1380 µM. In addition, in data set [2] (setting [3]), the concentration for half-maximal inhibition (IC50) amounted to 140 µM. The “Selectivity index (A/B)” value in data set [2] turned out to be 9.85.
The matching figures for `O=C1NC(=O)C2=C1CCC2O` (stereo in doubt) [(+)-4, (S)-4-Hydroxy-5,6-dihydrocyclopenta[c]pyrrole-1,3(2H,4H)-dione]: 217 µM, 95.9 µM and 2.26.
`O=C(S[C@@]12CC[C@@H](O)[C@@H]1C(=O)NC2=O)c1ccc(F)cc1` (relative stereo) [Compound 11, S-((3aS*,6R*,6aR*)-6-Hydroxy-1,3-dioxohexahydrocyclopenta[c]pyrrol-3a(1H)-yl) 4-fluorobenzothioate] registered a melting point of 184 to 186 °C. The same compound had an IC50 at 24 h in data set [1] of 474 µM. Besides, in data set [2] (setting [3]), the half-maximal inhibitory concentration (IC50) was 318 µM. Besides, in data set [2], the “Selectivity index (A/B)” value was found to be 1.49.
Compound `CC(=O)OC1CC[C@]2(SC(=O)c3ccc(F)cc3)C(=O)NC(=O)[C@H]12` (relative stereo) [Compound 33, (3aS*,6aR*)-6a-((4-Fluorobenzoyl)thio)-1,3-dioxooctahydrocyclopenta[c]pyrrol-4-yl acetate] returned an IC50 at 24 h in data set [1] of 12100 µM. The IC50 in data set [2] (setting [3]) was determined as 34.3 µM. For the same compound, the “Selectivity index (A/B)” value in data set [2] was found to be 353.8076.
`CC(=O)SC12CCC=C1C(=O)NC2=O` (stereo not drawn) [Compound 26, S-(1,3-Dioxo-2,3,4,5-tetrahydrocyclopenta[c]pyrrol-3a(1H)-yl)ethanethioate]: the melting point lay within 170 to 172 °C. In data set [1], this compound gave a half-inhibitory concentration (IC50) at 24 h of 184 µM. In addition, in data set [2] (setting [3]), the 50% inhibitory concentration (IC50) was 20.5 µM. Moreover, in data set [2], the “Selectivity index (A/B)” value is listed as 9.
In the case of `CC(=O)SC1CC[C@]2(SC(C)=O)C(=O)NC(=O)[C@H]12` (relative stereo) [Compound 28, S,S′-((3aR*,6aR*)-1,3-Dioxohexahydrocyclopenta[c]pyrrole-3a,6(1H)-diyl) diethanethioate], the IC50 at 24 h in data set [1] turned out to be 10000 µM. For the same compound, the IC50 in data set [2] (RAW264.7, 24 h) was found to be 19.8 µM. Besides, the “Selectivity index (A/B)” value in data set [2] was found to be 505.4343.
`O=C(S)c1ccc(O)cc1` [Compound 6, 4-hydroxybenzothioic S-acid] gave an IC50 at 24 h in data set [1] of 2910 µM. For the same compound, in data set [2] (setting [3]), the IC50 stood at 127 µM. Also, the “Selectivity index (A/B)” value in data set [2] came out at 22.99.
`O=C1NC(=O)C2=C1CCC2SC(=O)c1cccs1` (stereo not drawn) [Compound 29, S-(1,3-Dioxo-1,2,3,4,5,6-hexahydrocyclopenta[c]pyrrol-4-yl) thiophene-2-carbothioate]: the melting point lay in the range of 138 to 139 °C. In data set [1], this compound had a concentration for half-maximal inhibition (IC50) at 24 h of 26.7 µM. Besides, in data set [2] (setting [3]), the IC50 amounted to 65 µM. For the same compound, the “Selectivity index (A/B)” value in data set [2] came to 0.4108.
The corresponding values for `O=C(S[C@]12CCC[C@H]1C(=O)NC2=O)c1ccc(F)cc1` (relative stereo) [Compound 20, S-((3aR*,6aS*)-1,3-Dioxohexahydrocyclopenta[c]pyrrol-3a(1H)-yl) 4-fluorobenzothioate] are 186 to 187 °C, 384 µM, 390 µM and 0.9841.
`O=C1NC(=O)C2=C1CCC2O` (stereo in doubt) [(−)-4, (R)-4-Hydroxy-5,6-dihydrocyclopenta[c]pyrrole-1,3(2H,4H)-dione] registered a concentration for half-maximal inhibition (IC50) at 24 h in data set [1] of 319 µM. Besides, the concentration for half-maximal inhibition (IC50) in data set [2] (setting [3]) came to 121 µM. For the same compound, the “Selectivity index (A/B)” value in data set [2] turned out to be 2.631.
`CC(=O)OC1CC[C@]2(SC(=O)Cc3ccccc3)C(=O)NC(=O)[C@H]12` (relative stereo) [Compound 32, (3aS*,6aR*)-1,3-Dioxo-6a-((2-phenylacetyl)thio) octahydrocyclopenta[c]pyrrol-4-yl acetate] registered an IC50 at 24 h in data set [1] of 1610 µM. Moreover, in data set [2] (RAW264.7, 24 h), the IC50 amounted to 68.2 µM. Moreover, in data set [2], the “Selectivity index (A/B)” value worked out at 23.57.
`CC(=O)OC1CCC2=C1C(=O)NC2=O` (racemic) [Compound 5, 1,3-dioxo-1,2,3,4,5,6-hexahydrocyclopenta[c]pyrrol-4-yl acetate]: the IC50 at 24 h in data set [1] turned out to be 616 µM. The half-maximal inhibitory concentration (IC50) in data set [2] (setting [3]) turned out to be 42 µM. Moreover, the “Selectivity index (A/B)” value in data set [2] came out at 14.67.
As for `CC(=O)S[C@]12CC[C@@H](O)[C@H]1C(=O)NC2=O` (relative stereo) [Compound 7, S-((3aR*,6R*,6aS*)-6-Hydroxy-1,3-dioxohexahydrocyclopenta[c]pyrrol-3a(1H)-yl) ethanethioate], in data set [1], the IC50 at 24 h was 558 µM. In data set [2] (setting [3]), the half-maximal inhibitory concentration (IC50) was 148 µM. In addition, the “Selectivity index (A/B)” value in data set [2] came to 3.7762.
As to `CC(=O)OC1CC[C@]2(SC(=O)c3ccccc3Cl)C(=O)NC(=O)[C@H]12` (relative stereo) [Compound 34, (3aS*,6aR*)-6a-((2-Chlorobenzoyl)thio)-1,3-dioxooctahydrocyclopenta[c]pyrrol-4-yl acetate], the IC50 at 24 h in data set [1] came out at 9080 µM. In addition, the concentration for half-maximal inhibition (IC50) in data set [2] (setting [3]) was 101 µM. Also, the “Selectivity index (A/B)” value in data set [2] stood at 89.51.
Consider `O=C(Cc1ccccc1)S[C@]12CCC[C@H]1C(=O)NC2=O` (relative stereo) [Compound 19, S-((3aR*,6aS*)-1,3-Dioxohexahydrocyclopenta[c]pyrrol-3a(1H)-yl) 2-phenylethanethioate], for which the IC50 at 24 h in data set [1] turned out to be 426 µM. Further, the IC50 in data set [2] (setting [3]) was 56.9 µM. Further, the “Selectivity index (A/B)” value in data set [2] worked out at 7.48.
`O=C(S[C@@]12CC[C@H](O)[C@@H]1C(=O)NC2=O)c1ccc(O)cc1` [(+)-1, S-((3aS,6S,6aR)-6-hydroxy-1,3-dioxohexahydrocyclopenta[c]pyrrol-3a(1H)-yl) 4-hydroxybenzothioate] gave an IC50 at 24 h in data set [1] of 1020 µM. In data set [2] (setting [3]), the half-maximal inhibitory concentration (IC50) was found to be 71.8 µM. For the same compound, the “Selectivity index (A/B)” value in data set [2] worked out at 14.14.
`O=C(S[C@@]12CC[C@@H](O)[C@@H]1C(=O)NC2=O)c1cccs1` (relative stereo) [Compound 12, S-((3aS*,6R*,6aR*)-6-Hydroxy-1,3-dioxohexahydrocyclopenta[c]pyrrol-3a(1H)-yl) thiophene-2-carbothioate]: in data set [1], half-maximal inhibition (IC50 at 24 h) was put at 10900 µM. The half-inhibitory concentration (IC50) in data set [2] (setting [3]) stood at 36.6 µM. Further, the “Selectivity index (A/B)” value in data set [2] stood at 297.0519.
The corresponding values for `CC(=O)OC1CC[C@]2(SC(=O)c3ccccc3)C(=O)NC(=O)[C@H]12` (relative stereo) [Compound 35, (3aS*,6aR*)-6a-(Benzoylthio)-1,3-dioxooctahydrocyclopenta[c]pyrrol-4-yl acetate] are 1910 µM, 64.3 µM and 29.74.
Turning to `O=C(SC1CC[C@]2(SC(=O)c3ccc(F)cc3)C(=O)NC(=O)[C@H]12)c1ccc(F)cc1` (relative stereo) [Compound 23, S,S′-((3aR*,6aR*)-1,3-Dioxohexahydrocyclopenta[c]pyrrole-3a,6(1H)-diyl) bis(4-fluorobenzothioate)], the IC50 at 24 h in data set [1] was determined as 211 µM. The IC50 in data set [2] (RAW264.7, 24 h) was 98.3 µM. For the same compound, in data set [2], the “Selectivity index (A/B)” value stood at 2.142.
In data set [1], `O=C(Cc1ccccc1)S[C@@]12CC[C@@H](O)[C@@H]1C(=O)NC2=O` (relative stereo) [Compound 10, S-((3aS*,6R*,6aR*)-6-Hydroxy-1,3-dioxohexahydrocyclopenta[c]pyrrol-3a(1H)-yl) 2-phenylethanethioate] displayed a half-inhibitory concentration (IC50) at 24 h of 774 µM. The IC50 in data set [2] (setting [3]) came to 143 µM. In addition, in data set [2], the “Selectivity index (A/B)” value came out at 5.418.
The compound `O=C1NC(=O)C2(SC(=O)c3ccc(F)cc3)CCC=C12` (stereo not shown) yielded a melting point of 191 to 192 °C.
`O=C(S[C@@]12CC[C@@H](O)[C@@H]1C(=O)NC2=O)c1ccccc1O` (relative stereo) displayed a melting point of 213 to 216 °C.
